Assay results as given in patent publication US7019144B2, “1,2,4-Triazole derivative, method for preparing the same, and pharmaceutical composition containing the same” (CJ Corp., priority 2002, dated 2006).

Assays:
[1] = tested on: carrageenan-induced paw edema; experiment: Carrageenan-induced paw edema test in rats; assay type: in vivo; settings: for Inhibitory effect (% inhibition): oral administration, foot swelling 3 hours after carrageenan injection vs control; for COX inhibitory effect (paw edema % inhibition) in comparison with Celecoxib: oral, comparison in words
Experimental: 2. Carrageenan-induced Paw Edema Test in Rats
The day before the test date, rats were selected in each group so that the average body weight was as close as possible, and the rats were fasted by feed withdrawal prior to the test. At the test date, the rats were orally administered with the test compounds and a control material. After 1 hour, the volume (V0h) of a predetermined portion of the left hind foot of the rats was measured with a plethysmometer. 100 μl of 1% carrageenan solution was subcutaneously injected to the left hind foot of the rats using a syringe with 1 ml capacity. Three hours after the injection of the carrageenan, the volume (V3h) of the predetermined portion of the foot was again measured. The foot swelling variation […] in a group of test compound-treated rats was compared with that of a group of control material-treated rats. With the supposition of 0% inhibition by the control (control material-treated rats), the inhibition percentage of edema of each test compound was determined.

COX-1 = molecular target: T1, COX-1 (Homo sapiens, UniProt P23219); experiment: Assay for the COX-1 inhibitory activity using U-937 (PGE2 inhibition); assay type: cell-based; settings: for inhibition at 1 µM: 1 μM test compound, U-937 human lymphoma cells, PGE2 inhibition vs DMSO, read-out: Cyclooxygenase (COX) Inhibition (%) COX-1 (1 μM); for COX-1 inhibitory activity in comparison with the reference (Valdecoxib): 1 μM, U-937, comparison in words
T1 construct: host or cells: U-937 human lymphoma cells
Experimental: The collected cells were diluted with HBSS (×1, Hank's balanced salt solution) to a concentration of 1×10^6 cells/ml. 1 ml of the dilute cell solution was placed into each well of 12-well plates. 5 μl of 1 μM solution of a test compound in DMSO and 5 μl of DMSO as a control were added to the wells. The wells were incubated in CO2 incubator at 37° C. for 15 minutes. Separately, 10 mM stock solution of arachidonic acid in ethanol was diluted ten times in ethanol to prepare 1 mM solution of arachidonic acid. Arachidonic acid acts as a substrate. 10 μl of the 1 mM solution of arachidonic acid was added to each well and incubated at CO2 incubator at 37° C. for 30 minutes. The cell solution of each well was placed in a centrifuge test tube and centrifuged at 10,000 rpm at 4° C. for 5 minutes. The concentration of PGE2 in the collected cells and the supernatant was quantified by means of a monoclonal kit (Cayman Chemicals). The percentages of PGE2 inhibition in a group of the test compound-treated cells in relation to a group of the DMSO-treated cells were calculated. Based on the calculated values, the COX-1 inhibitory activities were evaluated.
(§1) The percentages of the COX inhibition were calculated according to the following equation: % Inhibition=(concentration of PGE2 in test compound-untreated sample−concentration of PGE2 in test compound-treated sample)/(concentration of PGE2 in test compound-untreated sample)×100

COX-2 = molecular target: T2, COX-2 (Mus musculus, UniProt Q05769); experiment: Assay for the COX-2 inhibitory activity using RAW 264.7 cell line (PGE2, interferon γ/LPS induced); assay type: cell-based; settings: for inhibition at 0.01 µM: RAW264.7, 10 nM test compound, RAW 264.7 cells, interferon γ + LPS, 18 hours, PGE2, read-out: Cyclooxygenase (COX) Inhibition (%) COX-2 (10 nM); for COX-2 inhibitory activity in comparison with the reference (Valdecoxib): 10 nM, RAW 264.7, comparison in words; for selectivity (COX-2 over COX-1): judged from Table 1, in words
T2 construct: host or cells: RAW 264.7 cells, aspirin-pretreated, then induced with interferon gamma and LPS
T2 sequence (Q05769 18-604): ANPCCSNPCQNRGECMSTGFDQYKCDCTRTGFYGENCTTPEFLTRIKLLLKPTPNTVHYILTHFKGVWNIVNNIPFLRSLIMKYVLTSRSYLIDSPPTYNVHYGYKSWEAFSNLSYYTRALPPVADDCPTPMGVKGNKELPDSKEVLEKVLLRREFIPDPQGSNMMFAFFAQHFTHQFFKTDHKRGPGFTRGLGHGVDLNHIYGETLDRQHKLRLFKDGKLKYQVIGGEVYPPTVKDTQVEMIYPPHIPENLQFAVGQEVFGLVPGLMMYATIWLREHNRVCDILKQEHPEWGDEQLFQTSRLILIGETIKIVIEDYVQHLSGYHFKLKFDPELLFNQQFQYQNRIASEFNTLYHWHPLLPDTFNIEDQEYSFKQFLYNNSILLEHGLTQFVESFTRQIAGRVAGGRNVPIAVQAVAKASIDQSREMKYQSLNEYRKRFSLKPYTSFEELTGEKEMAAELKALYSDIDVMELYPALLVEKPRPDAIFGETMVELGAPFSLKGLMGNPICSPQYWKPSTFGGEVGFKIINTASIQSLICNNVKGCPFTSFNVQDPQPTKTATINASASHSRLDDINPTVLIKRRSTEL
Experimental: Each well was treated with 250 μM of aspirin and incubated at 37° C. for 2 hours. […] Then, each well was treated with interferon γ (100 units/ml) and Iipopolysaccharide (LPS, 100 ng/ml) and incubated for 18 hours. The culture media were transferred to another test tubes. The concentration of PGE2 was quantified by means of the EIA kit (Cayman Chemicals).
as §1

T1 sequence (P23219 24-599): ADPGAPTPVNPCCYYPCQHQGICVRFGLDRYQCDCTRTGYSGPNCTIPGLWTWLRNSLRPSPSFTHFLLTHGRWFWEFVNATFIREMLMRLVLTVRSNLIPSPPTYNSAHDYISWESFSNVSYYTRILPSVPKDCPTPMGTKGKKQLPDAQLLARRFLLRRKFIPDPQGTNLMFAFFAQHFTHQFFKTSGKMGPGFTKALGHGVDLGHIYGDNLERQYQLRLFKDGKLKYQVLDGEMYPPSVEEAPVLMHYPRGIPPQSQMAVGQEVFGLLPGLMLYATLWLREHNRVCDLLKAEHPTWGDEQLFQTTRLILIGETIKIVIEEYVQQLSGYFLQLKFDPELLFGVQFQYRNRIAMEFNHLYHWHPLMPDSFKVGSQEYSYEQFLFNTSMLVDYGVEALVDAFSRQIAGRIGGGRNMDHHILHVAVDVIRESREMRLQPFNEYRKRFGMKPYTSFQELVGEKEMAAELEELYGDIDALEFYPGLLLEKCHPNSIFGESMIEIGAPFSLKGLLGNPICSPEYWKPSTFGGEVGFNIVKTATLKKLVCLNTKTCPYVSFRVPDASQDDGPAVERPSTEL

inhibition at 1 µM (COX-1) [%]	inhibition at 0.01 µM (COX-2) [%]	COX-1 inhibitory activity in comparison with the reference (Valdecoxib) (COX-1)	COX-2 inhibitory activity in comparison with the reference (Valdecoxib) (COX-2)	selectivity (COX-2 over COX-1) (COX-2)	SMILES	Inhibitory effect (% inhibition) [1] [% inhibition]	COX inhibitory effect (paw edema % inhibition) in comparison with Celecoxib [1]
34.6	32.3				COc1ccc(-c2nc(C(F)(F)F)nn2-c2ccc(S(N)(=O)=O)cc2)cc1 [Example 43, 4-[5-(4-methoxyphenyl)-3-trifluoromethyl-[1,2,4]triazol-1-yl]benzene suffonamide]	39.1	remarkably improved
10.1	28.6	the same as or lower	remarkably enhanced	excellent selectivities	COc1ccc(-c2nc(C(F)(F)F)nn2-c2ccc(S(C)(=O)=O)cc2)cc1 [Example 28, 1-(4-methanesulfonylphenyl)-5-(4-methoxyphenyl)-3-trifluoromethyl-1H-[1,2,4]triazole]	23.3	
23.1	29.9	the same as or lower	remarkably enhanced	excellent selectivities	NS(=O)(=O)c1ccc(-n2nc(C(F)(F)F)nc2-c2ccc(Br)cc2)cc1 [Example 44, 4-[5-(4-bromophenyl)-3-trifluoromethyl-[1,2,4]triazol-1-yl]benzene sulfonamide]	28.8	remarkably improved
14.6	33.6	the same as or lower	remarkably enhanced	excellent selectivities	CS(=O)(=O)c1ccc(-n2nc(C(F)(F)F)nc2-c2ccc(Br)cc2)nc1 [Example 45, 2-[5-(4-bromophenyl)-3-trifluoromethyl-[1,2,4]triazol-1-yl]-5-methanesulfonyl pyridine]	21.6	
13.8	16				CS(=O)(=O)c1ccc(-n2nc(C(F)(F)F)nc2-c2ccc(Br)cc2)cc1 [Example 27, 5-(4-bromophenyl)-1-(4-methanesulfonylphenyl)-3-trifluoromethyl-1H-[1,2,4]triazole]	21.7	
